Activity data for three compounds are collected here from ChEMBL document CHEMBL1275494, “Microbiological and genotypic analysis of methicillin-resistant Staphylococcus aureus bacteremia” (2008).

Active and inactive are the calls of the source. The rule behind the calls is not given here.

Test [1] deals with Staphylococcus aureus. Nature of the test: Antibacterial activity against SCCmec type 4 genotype-positive and methicillin-resistant Staphylococcus aureus by CLSI method. Format: functional, organism-based.
Test [2] deals with Staphylococcus aureus. The test is described as follows: Antibacterial activity against SCCmec type 2 genotype-positive and methicillin-resistant Staphylococcus aureus by CLSI method. The test is classed as functional, organism-based.

Take `CN(C)[C@@H]1C(O)=C(C(N)=O)C(=O)[C@@]2(O)C(O)=C3C(=O)c4c(O)cccc4[C@@](C)(O)[C@H]3C[C@@H]12`: the outcome in test [1] was inactive.
With `C[C@H]1COc2c(N3CCN(C)CC3)c(F)cc3c(=O)c(C(=O)O)cn1c23`, the outcome in test [2] was inactive. In addition, the result in test [1] was Active.
As for `CCC[C@@H]1C[C@@H](C(=O)N[C@@H]([C@H]2O[C@H](SC)[C@H](O)[C@@H](O)[C@H]2O)[C@H](C)Cl)N(C)C1`, in test [2], the result was inactive. For the same compound, the outcome in test [1] was Active.
